Measurements published in patent US11981686B2, “Urea compound having substituent” (DAIICHI SANKYO COMPANY, LIMITED, priority 2019, dated 2024).

Each molecule was assayed against SIRT6 enzyme (Homo sapiens, UniProt Q8N6T7) (assay: Measurement of deacetylation activity (SIRT6, AlphaLISA, H3K9(Ac) peptide)). Details: SIRT6 25 ng/mL, H3K9(Ac) biotin peptide 2 nM, NAD 10 μM, room temperature 30 minutes, duplicate.
Format: biochemical
Method in brief: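 Activation read as EC150, the concentration giving 150% activity relative to enzyme/no-enzyme DMSO controls, via variable-slope fit. Deacetylation of 2 nM biotinylated H3K9(Ac) peptide with 10 μM NAD+ by 25 ng/mL SIRT6 ran 30 min at room temperature, pH 8.0, then AlphaLISA detection of unmodified H3K9.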

Chain of SIRT6 enzyme (Q8N6T7 whole entry, species assumed): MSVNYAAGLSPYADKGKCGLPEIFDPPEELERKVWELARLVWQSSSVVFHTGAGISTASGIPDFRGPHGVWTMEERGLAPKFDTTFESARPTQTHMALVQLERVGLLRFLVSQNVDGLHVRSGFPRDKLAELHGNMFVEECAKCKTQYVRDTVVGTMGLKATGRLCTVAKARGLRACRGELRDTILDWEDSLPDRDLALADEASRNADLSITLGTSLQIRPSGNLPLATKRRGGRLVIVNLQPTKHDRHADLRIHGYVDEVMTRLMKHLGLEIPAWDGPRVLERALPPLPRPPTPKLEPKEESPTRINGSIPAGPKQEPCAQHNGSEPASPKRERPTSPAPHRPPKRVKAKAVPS

| SMILES | EC150 (the concentration of the compound showing a relative enzyme activity of 150%) |
| --- | --- |
| Cn1ccc(CNC(=O)Nc2nc3c(s2)[C@@H]2COC[C@H](C3)N2c2ncc(-c3cccc(OC(F)F)n3)o2)cc1=O [Example 178, N-[(4S,8S)-10-{5-[6-(difluoromethoxy)pyridin-2-yl]-1,3-oxazol-2-yl}-4,7,8,9-tetrahydro-5H-4,8-epiminooxocino[5,4-d][1,3]thiazol-2-yl]-N′-[(1-methyl-2-oxo-1,2-dihydropyridin-4-yl)methyl]urea] | 0.1 μm |
| CNC(=O)Nc1nc2c(s1)C1COCC(C2)N1c1ncc(-c2cccc(C(F)F)c2)o1 (stereo not shown) [Example 14, N-(10-{5-[3-(difluoromethyl)phenyl]-1,3-oxazol-2-yl}-4,7,8,9-tetrahydro-5H-4,8-epiminooxocino[5,4-d][1,3]thiazol-2-yl)-N′-methylurea] | 0.94 μm |
| C[C@@H](O)CNC(=O)Nc1nc2c(s1)[C@@H]1COC[C@H](C2)N1c1ncc(-c2cccc(C(F)F)c2)o1 [Example 72, N-[(4S,8S)-10-{5-[3-(difluoromethyl)phenyl]-1,3-oxazol-2-yl}-4,7,8,9-tetrahydro-5H-4,8-epiminooxocino[5,4-d][1,3]thiazol-2-yl]-N′-[(2R)-2-hydroxypropyl]urea] | 0.36 μm |
| O=C(Nc1nc2c(s1)[C@@H]1COC[C@H](C2)N1c1nc2cc(OC(F)(F)F)ccc2o1)N[C@H]1C[C@H](O)C1 [Example 54, N-[(1r,3S)-3-hydroxycyclobutyl]-N′-[(4S,8S)-10-(5-trifluoromethoxy-1,3-benzoxazol-2-yl)-4,7,8,9-tetrahydro-5H-4,8-epiminooxocino[5,4-d][1,3]thiazol-2-yl]urea] | 0.48 μm |
| C[C@H](CO)NC(=O)Nc1nc2c(s1)[C@@H]1COC[C@H](C2)N1c1ncc(-c2cccc(OC(F)F)c2)o1 [Example 70, N-[(4S,8S)-10-{5-[3-(difluoromethoxy)phenyl]-1,3-oxazol-2-yl}-4,7,8,9-tetrahydro-5H-4,8-epiminooxocino[5,4-d][1,3]thiazol-2-yl]-N′-[(2R)-1-hydroxypropan-2-yl]urea] | 0.45 μm |
| O=C(NCC(F)(F)F)Nc1nc2c(s1)C1COCC(C2)N1c1nnc(-c2cccc(C(=O)C3CC3)c2)o1 (stereo not shown) [Example 114] | 2.4 μm |
| CNC(=O)Nc1nc2c(s1)[C@H]1CN(C(=O)OC)C[C@@H](C2)N1c1nc(-c2ccc(F)cc2)no1 (relative stereo) [Example 24, (−)-Methyl (4R*,8R*)-10-[3-(4-fluorophenyl)-1,2,4-oxadiazol-5-yl]-2-[(methylcarbamoyl)amino]-4,7,8,9-tetrahydro-4,8-epimino[1,3]thiazolo[5,4-d]azocine-6(5H)-carboxylate] | 0.19 μm |
| C[C@H](O)CNC(=O)Nc1nc2c(s1)[C@@H]1COC[C@H](C2)N1c1ncc(-c2cccc(OC(F)F)n2)o1 [Example 174, N-[(4S,8S)-10-{5-[6-(difluoromethoxy)pyridin-2-yl]-1,3-oxazol-2-yl}-4,7,8,9-tetrahydro-5H-4,8-epiminooxocino[5,4-d][1,3]thiazol-2-yl]-N′-[(2S)-2-hydroxypropyl]urea] | 0.74 μm |
| CCOc1ccc2oc(N3[C@@H]4COC[C@H]3c3sc(NC(=O)N[C@H](C)CO)nc3C4)nc2c1 [Example 52, N-[(4S,8S)-10-(5-ethoxy-1,3-benzoxazol-2-yl)-4,7,8,9-tetrahydro-5H-4,8-epiminooxocino[5,4-d][1,3]thiazol-2-yl]-N′-[(2R)-1-hydroxypropan-2-yl]urea] | 1.9 μm |
| C[C@H](CO)NC(=O)Nc1nc2c(s1)CN(c1nc3cc(S(C)(=O)=O)ccc3o1)C(C)(C)C2 [Example 74, N-[(2R)-1-hydroxypropan-2-yl]-N′-{5-[5-(methanesulfonyl)-1,3-benzoxazol-2-yl]-6,6-dimethyl-4,5,6,7-tetrahydro[1,3]thiazolo[5,4-c]pyridin-2-yl}urea] | 0.68 μm |
